Consider two compounds from US9957282B2, “Crystalline forms of quinolone analogs and their salts” (Senhwa Biosciences, Inc., priority 2015, dated 2018).

For orientation: solubility means the concentration that dissolves in the medium under given conditions.

A value given as a limit tells only on which side of the number the result lay.

Data set [1] in a line: Aqueous solubility of acid salts of Compound I. In kind it is physicochemical. The note with it: water, 42 °C, thermodynamic from solid, approximately 50 mg salt in 0.25 mL water (x2, added portion wise), read-out: Aqueous Solubility (Calculated).
Method: The mixture was stirred at 42° C. for 3 days and each solution was analyzed by HPLC for concentration and purity.
A short description of data set [2]: Solubility of polymorph forms in organic solvents. It is filed as physicochemical. As to the method: Solubility of polymorphs A, C, E, and G of Compound I (free base) were determined by suspending approximately 25 mg of each polymorph in organic solvents and the resulting mixtures were stirred at room temperature or elevated temperatures for 1 h. A sample was filtered and the concentration was determined by HPLC. The remaining suspension was evaporated and the solid was analyzed by XRPD to confirm that the polymorph form in the suspension was still the same polymorph form used for the experiment.

On to `Cc1cnc(CNC(=O)c2c(=O)c3ccc(N4CCCN(C)CC4)nc3n3c2sc2ccccc23)cn1`, for which the solubility at 3 days in data set [1] was greater than 200 mg/mL.
In the case of `Cc1cnc(CNC(=O)c2c(=O)c3ccc(N4CCCN(C)CC4)nc3n3c2sc2ccccc23)cn1` [Polymorph A], in data set [2] (compared with polymorphs C, E, G), the “Relative stability of polymorph, inferred from solubility” value is “most stable”. Also, the “Solubility of polymorph relative to polymorphs A, C, E, G” value in data set [2] (methanol and THF (FIG. 20), room temperature or elevated temperatures, stirred 1 h) is reported as “lowest solubility”.
